Source: ChEMBL document CHEMBL4346726 (Bioorg Med Chem Lett, 2019)

How the values were obtained:
[1] = test system: Hepatitis C virus; test: Antiviral activity against HCV genotype 1a harboring Q80K mutant in RLuc cells assessed as reduction in viral replication by luciferase reporter gene assay; type: functional, organism-based, Hepacivirus hominis; details: subtype 1a
[2] = Inhibition of HCV genotype 3a NS3/4a protease by enzymatic assay; parameters: species or system Hepatitis C virus subtype 3a
[3] = test system: Hepatitis C virus; test: Antiviral activity against HCV genotype 3a in RLuc cells assessed as reduction in viral replication by luciferase reporter gene assay; type: functional, organism-based, Hepacivirus hominis, subtype 3a; details: Hepatitis C virus, subtype 3a
[4] = Half life in rat at 1 mg/kg, iv or 3 mg/kg, po; type: ADME, organism-based; details: in vivo
[5] = Half life in dog at 0.5 mg/kg, iv or 1 mg/kg, po; type: ADME, […], Canis lupus familiaris; details: in vivo
[6] = Volume of distribution at steady state in cynomolgus monkey at 0.5 mg/kg, iv or 1 mg/kg, po; type: ADME, organism-based, Macaca fascicularis; details: in vivo, read-out: Vdss
[7] = test system: Hepacivirus hominis; test: Binding affinity to HCV NS3/4a protease assessed as compound-protein adduct formation per mg protein using radiolabelled compound
[8] = test system: Hepatitis C virus; test: Antiviral activity against HCV genotype 1a in RLuc cells assessed as reduction in viral replication by luciferase reporter gene assay; type: functional, organism-based, Hepacivirus hominis; details: subtype 1a
[9] = test system: Hepatitis C virus; test: Antiviral activity against HCV genotype 1b in RLuc cells assessed as reduction in viral replication by luciferase reporter gene assay; type: functional, organism-based, Hepacivirus hominis; details: subtype 1b
[10] = test system: Hepatitis C virus; test: Antiviral activity against HCV genotype 2a in RLuc cells assessed as reduction in viral replication by luciferase reporter gene assay; type: functional, organism-based, Hepacivirus hominis; details: subtype 2a
[11] = test system: Hepatitis C virus; test: Antiviral activity against HCV genotype 2b in RLuc cells assessed as reduction in viral replication by luciferase reporter gene assay; type: functional, organism-based, Hepacivirus hominis; details: subtype 2b
[12] = test system: Hepatitis C virus; test: Antiviral activity against HCV genotype 4a in RLuc cells assessed as reduction in viral replication by luciferase reporter gene assay; type: functional, organism-based, Hepacivirus hominis; details: subtype 4a
[13] = test system: Hepatitis C virus; test: Antiviral activity against HCV genotype 5a in RLuc cells assessed as reduction in viral replication by luciferase reporter gene assay; type: functional, organism-based, Hepacivirus hominis; details: subtype 5a
[14] = test system: Hepatitis C virus; test: Antiviral activity against HCV genotype 6a in RLuc cells assessed as reduction in viral replication by luciferase reporter gene assay; type: functional, organism-based, Hepacivirus hominis; details: subtype 6a
[15] = test system: Hepatitis C virus; test: Antiviral activity against HCV genotype 1a harboring R155K mutant in RLuc cells assessed as reduction in viral replication by luciferase reporter gene assay; type: functional, organism-based, Hepacivirus hominis; details: subtype 1a
[16] = test system: Hepatitis C virus; test: Antiviral activity against HCV genotype 1b harboring D168E mutant in RLuc cells assessed as reduction in viral replication by luciferase reporter gene assay; type: functional, organism-based, Hepacivirus hominis; details: subtype 1b
[17] = test system: Hepatitis C virus; test: Antiviral activity against HCV genotype 1a harboring A156T mutant in RLuc cells assessed as reduction in viral replication by luciferase reporter gene assay; type: functional, organism-based, Hepacivirus hominis; details: subtype 1a
[18] = test system: Hepatitis C virus; test: Antiviral activity against HCV genotype 1b harboring A156T mutant in RLuc cells assessed as reduction in viral replication by luciferase reporter gene assay; type: functional, organism-based, Hepacivirus hominis; details: subtype 1b
[19] = Fraction unbound in rat plasma; type: ADME, cell-free
[20] = Fraction unbound in dog plasma; type: ADME, cell-free, Canis lupus familiaris
[21] = Fraction unbound in cynomolgus monkey plasma; type: ADME, cell-free, Macaca fascicularis
[22] = Fraction unbound in human plasma; type: ADME, cell-free
[23] = Clearance in rat at 1 mg/kg, iv or 3 mg/kg, po; type: ADME, organism-based; details: in vivo
[24] = Clearance in dog at 0.5 mg/kg, iv or 1 mg/kg, po; type: ADME, […], Canis lupus familiaris; details: in vivo
[25] = Clearance in cynomolgus monkey at 0.5 mg/kg, iv or 1 mg/kg, po; type: ADME, organism-based, Macaca fascicularis; details: in vivo
[26] = Volume of distribution at steady state in rat at 1 mg/kg, iv or 3 mg/kg, po; type: ADME, organism-based; details: in vivo, read-out: Vdss
[27] = Volume of distribution at steady state in dog at 0.5 mg/kg, iv or 1 mg/kg, po; type: ADME, […], Canis lupus familiaris; details: in vivo, read-out: Vdss
[28] = Half life in cynomolgus monkey at 0.5 mg/kg, iv or 1 mg/kg, po; type: ADME, organism-based, Macaca fascicularis; details: in vivo
[29] = Oral bioavailability in rat at 3 mg/kg; type: ADME, organism-based; details: in vivo
[30] = Oral bioavailability in dog at 1 mg/kg; type: ADME, […], Canis lupus familiaris; details: in vivo
[31] = Oral bioavailability in cynomolgus monkey at 1 mg/kg; type: ADME, organism-based, Macaca fascicularis; details: in vivo
[32] = Fraction absorbed in rat at 3 mg/kg, po; type: ADME, organism-based; details: in vivo, read-out: Fabs
[33] = Fraction absorbed in dog at 1 mg/kg, po; type: ADME, […], Canis lupus familiaris; details: in vivo, read-out: Fabs
[34] = Fraction absorbed in cynomolgus monkey at 1 mg/kg, po; type: ADME, organism-based, Macaca fascicularis; details: in vivo, read-out: Fabs
[35] = Ratio of drug level in rat liver to plasma at 1 mg/kg, iv or 3 mg/kg, po measured at 2 hr; type: ADME, organism-based
[36] = Ratio of drug level in dog liver to plasma at 0.5 mg/kg, iv or 1 mg/kg, po measured at 2 hr; type: ADME, […], Canis lupus familiaris
[37] = Ratio of drug level in cynomolgus monkey liver to plasma at 0.5 mg/kg, iv or 1 mg/kg, po measured at 2 hr; type: ADME, organism-based, Macaca fascicularis
[38] = Selectivity ratio of EC50 for antiviral activity against HCV genotype 3a to EC50 for antiviral activity against HCV genotype 1a; type: functional
[39] = Protein binding in rat plasma; type: ADME; details: read-out: PPB
[40] = Protein binding in dog plasma; type: ADME, Canis lupus familiaris; details: read-out: PPB
[41] = Protein binding in cynomolgus monkey plasma; type: ADME, Macaca fascicularis; details: read-out: PPB
[42] = Protein binding in human plasma; type: ADME; details: read-out: PPB
[43] = Drug uptake in human hepatocytes; type: ADME, cell-based, Hepatocyte; details: TDE = time-dependent effect
[44] = Drug uptake in organic-anion-transporting polypeptide over expressing CHO cells; type: ADME, cell-based, Cricetulus griseus; details: chinese hamster, TDE = time-dependent effect
[45] = Steady state half life in human at 30 to 300 mg administered once daily for 7 days measured under phase 1 clinical trials; type: ADME; details: in vivo, read-out: t1/2ss

SMILES: CC[C@@H]1[C@@H]2CN(C(=O)[C@H](C(C)(C)C)NC(=O)O[C@@H]3C[C@H]3CCCCC(F)(F)c3nc4ccc(OC)cc4nc3O2)[C@@H]1C(=O)N[C@]1(C(=O)NS(=O)(=O)C2(C)CC2)C[C@H]1C(F)F
- EC50 [1]: 3.1 nM
- Ki [2]: 0.063 nM
- EC50 [3]: 6.1 nM
- half-life [4]: 55.8 min
- half-life [5]: 252 min
- Vd [6]: 0.8 L/kg
- PB [7]: < 1 pmol/mg
- EC50 [8]: 3.9 nM
- EC50 [9]: 3.3 nM
- EC50 [10]: 3.7 nM
- EC50 [11]: 6.6 nM
- EC50 [12]: 4.9 nM
- EC50 [13]: 1.9 nM
- EC50 [14]: 1.5 nM
- EC50 [15]: 2.7 nM
- EC50 [16]: 4 nM
- EC50 [17]: > 500 nM
- EC50 [18]: > 500 nM
- Fu [19]: 0.42%
- Fu [20]: 0.28%
- Fu [21]: 0.91%
- Fu [22]: 0.46%
- clearance [23]: 13.7 mL/min/kg
- clearance [24]: 3.17 mL/min/kg
- clearance [25]: 14.8 mL/min/kg
- Vd [26]: 0.84 L/kg
- Vd [27]: 0.94 L/kg
- half-life [28]: 126 min
- bioavailability [29]: 83%
- bioavailability [30]: 27%
- bioavailability [31]: 10%
- Fa [32]: 100%
- Fa [33]: 30%
- Fa [34]: 23%
- Kp at 2 h [35]: > 500
- Kp at 2 h [36]: 55
- Kp at 2 h [37]: 100
- Ratio EC50 [38]: <2
- fraction unbound [39]: < 0.01
- fraction unbound [40]: < 0.01
- fraction unbound [41]: < 0.01
- fraction unbound [42]: < 0.01
- Drug uptake [43]: Tde
- Drug uptake [44]: Tde
- half-life [45]: 1680 to 2460 min
